Test results as given in patent US9586975B2, “Macrocyclic salt-inducible kinase inhibitors” (ONCODESIGN S.A., priority 2013, dated 2017).
Structures can show the parent of a compound that is named as a salt.

Key:
[1] = molecular target: T1, SIK2 recombinant protein (Homo sapiens, UniProt Q9H0K1); experiment: Radiometric protein kinase assay (33PanQinase Activity Assay) for inhibition of SIK2 kinase; assay type: biochemical; conditions: for remaining activity at 0.1 µM / remaining activity at 1 µM: 1 h; for remaining activity at 0.1 µM: compound at 0.1 μM; for remaining activity at 1 µM: compound at 1 μM; for IC50: ATP 1.0 μM, SIK2 0.3 nM, substrate RBER-Chktide
T1 construct: purchased Invitrogen Corporation
T1 sequence (Q9H0K1 whole entry): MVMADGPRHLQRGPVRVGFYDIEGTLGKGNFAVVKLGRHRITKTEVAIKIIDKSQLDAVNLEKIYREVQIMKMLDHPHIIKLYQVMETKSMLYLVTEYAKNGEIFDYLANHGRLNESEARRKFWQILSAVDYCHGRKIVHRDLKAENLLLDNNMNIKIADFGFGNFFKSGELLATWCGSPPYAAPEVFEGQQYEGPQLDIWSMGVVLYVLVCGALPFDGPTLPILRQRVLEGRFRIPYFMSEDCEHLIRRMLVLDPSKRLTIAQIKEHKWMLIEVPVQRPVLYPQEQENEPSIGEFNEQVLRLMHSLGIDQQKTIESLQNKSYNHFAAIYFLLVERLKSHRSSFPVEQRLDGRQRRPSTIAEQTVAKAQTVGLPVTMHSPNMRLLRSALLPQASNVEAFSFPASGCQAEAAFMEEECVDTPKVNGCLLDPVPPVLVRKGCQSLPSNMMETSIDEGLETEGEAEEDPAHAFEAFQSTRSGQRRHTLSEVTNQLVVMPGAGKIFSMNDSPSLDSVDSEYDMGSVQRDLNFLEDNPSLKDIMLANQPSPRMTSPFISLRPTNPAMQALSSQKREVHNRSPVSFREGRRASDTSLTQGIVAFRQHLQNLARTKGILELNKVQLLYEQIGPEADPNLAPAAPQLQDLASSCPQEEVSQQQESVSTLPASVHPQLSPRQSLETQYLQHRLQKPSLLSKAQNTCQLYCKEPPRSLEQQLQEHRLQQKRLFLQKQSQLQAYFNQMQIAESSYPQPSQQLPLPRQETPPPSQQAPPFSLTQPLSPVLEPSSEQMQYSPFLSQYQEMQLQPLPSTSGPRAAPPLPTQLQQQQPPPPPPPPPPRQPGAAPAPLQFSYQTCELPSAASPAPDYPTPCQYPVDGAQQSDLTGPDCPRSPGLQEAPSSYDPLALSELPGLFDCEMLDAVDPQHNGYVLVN
Experimental: The inhibition of SIK2 kinase was assessed using SIK2 recombinant protein in an in vitro peptide-based kinase assay.
A radiometric protein kinase assay (^33PanQinase® Activity Assay) is used for measuring the kinase activity. All assays are performed in 96-well FlashPlates™ from Perkin Elmer in a 50 μl reaction volume. The reaction cocktail is […] in 4 steps in the following order: • 10 μl of non-radioactive ATP solution (in H2O) • 25 μl of assay buffer/[γ-^33P]-ATP mixture • 5 μl of test sample in 10% DMSO • 10 μl of enzyme/substrate mixture
The assay for SIK2 contains 70 mM HEPES-NaOH pH 7.5, 3 mM MgCl2, 3 mM MnCl2, 3 μM Na-orthovanadate, 1.2 mM DTT, 50 μg/ml PEG20000, ATP (1.0 μM), [γ-^33P]-ATP (approx. 5×10^05 cpm per well), protein kinase SIK2 (0.3 nM) and substrate (RBER-Chktide), 2.0 μg/50 μl).
The kinase is obtained from Invitrogen Corporation.
The reaction cocktails were incubated at 30° C. for 60 minutes. The reaction was stopped with 50 μl of 2% (v/v) H3PO4, plates were aspirated and washed two times with 200 μl 0.9% (w/v) NaCl. Incorporation of ^33Pi (counting of “cpm”) was determined with a microplate scintillation counter.
The compounds are dissolved to 10 mM in DMSO. Where needed, solutions are sonicated in a bath sonicator.
Table 4 provides the pIC50 values and % Remaining activity values at two concentrations (1 μM and 0.1 μM) of the compounds according to the invention, obtained using the above mentioned kinase assay.

Structure (SMILES) | remaining activity at 0.1 µM [1] [%] | remaining activity at 1 µM [1] [%] | IC50 [1] [nM] | melting point [°C]
c1cc2cc(c1)-c1cnc3ccc(nn13)SCCNCCCO2 [Compound H99] |  |  | 100 to 1000 | 125.6
O=C(C1CC1)N1CCNc2ccn3ncc(c3n2)-c2cc(CO)cc(c2)OCC1 [Compound B75] | < 50 | < 50 |  | 
CNCCN1CCOc2cccc(c2)-c2cnn3ccc(nc23)OCC1 (as salt: HCl) [Compound H86] |  |  |  | 247
OCc1cc2cc(c1)-c1cnn3ccc(nc13)NCCNCCO2 [Compound H80] |  |  | < 100 | 
OCc1cc2cc(c1)-c1cnn3ccc(nc13)NCCCNCCN2 [Compound H100] | < 50 | < 50 | < 100 | 
c1cc2cc(c1)-c1cnn3ccc(nc13)SCCNCCCO2 [Compound H98] | < 50 | < 50 | 100 to 1000 | 178.1
CN(C)CCNC(=O)N1CCNCCOc2cccc(c2)-c2cnn3ccc1nc23 [Compound A11] | < 50 | < 50 | < 100 | > 300
OCc1cc2cc(c1)-c1cnn3ccc(nc13)NCCN(CC1CC1)CCO2 [Compound H81] | < 50 | < 50 | < 100 | 179.1
Cc1cc2cc(c1)-c1cnn3ccc(nc13)NCCCN(C)CCO2 [Compound H93] | < 50 | < 50 | < 100 | 
OCCN1CCNc2ccn3ncc(c3n2)-c2cc(Cl)cc(c2)OCC1 [Compound H97] | < 50 | < 50 | < 100 | 285.2
COCc1cc2cc(c1)-c1cnn3ccc(nc13)NCCN(C(=O)C1CC1)CCO2 [Compound H79] |  |  | < 100 | > 300
CNCCN1CCOc2cccc(c2)-c2cnn3ccc(nc23)OCC1 [Compound H86] | < 50 | < 50 | < 100 | 
CCN1CCCNc2ccn3ncc(c3n2)-c2cc(C)cc(c2)OCC1 [Compound H95] | < 50 | < 50 | < 100 | 
Cc1cc2cc(c1)-c1cnn3ccc(nc13)NCCCNCCO2 [Compound H92] | < 50 | < 50 | < 100 | > 300
Fc1cc2cc(c1)-c1cnn3ccc(nc13)NCCN(C1CCNCC1)CCO2 [Compound H83] | < 50 | < 50 | < 100 | 246.2
c1cc2cc(c1)-c1cnn3ccc(nc13)OCCCNCCCN2 (as salt: HCl) [Compound H89] |  |  |  | 273.3
COCc1cc2cc(c1)-c1cnn3ccc(nc13)NCCNCCO2 [Compound H78] | < 50 | < 50 | < 100 | 
c1cc2cc(c1)-c1cnn3ccc(nc13)NCCCNCCCO2 [Compound H88] | < 50 | < 50 | < 100 | 

Results, then the compound that gave them:

remaining activity at 0.1 µM [1] [%] | remaining activity at 1 µM [1] [%] | IC50 [1] [nM] | melting point [°C] | Structure (SMILES)
< 50 | < 50 | < 100 | > 300 | Cc1ccc2cc1OCCNCCNc1ccn3ncc-2c3n1 [Compound H82]
< 50 | < 50 | < 100 |  | OCc1cc2cc(c1)-c1cnn3ccc(nc13)NCCCNCCO2 [Compound H96]
> 50 | < 50 | < 100 |  | c1cc2cc(c1)-c1cnn3ccc(nc13)OCCCNCCCN2 [Compound H89]
< 50 | < 50 | < 100 | > 300 | NCCN1CCNc2ccn3ncc(c3n2)-c2cccc(c2)OCC1 [Compound H84]
< 50 | < 50 | < 100 | 173.1 | c1cc2cc(c1)-c1cnc3ccc(nn13)SCCNCCCN2 [Compound H85]
< 50 | < 50 | < 100 | > 300 | FC(F)(F)c1cc2cc(c1)-c1cnn3ccc(nc13)NCCCNCCO2 [Compound H90]
> 50 | < 50 | < 100 |  | c1cc2cc(c1)-c1cnn3ccc(nc13)OCCCNCCO2 [Compound H87]
 |  | < 100 | 288 | CN1CCCOc2cccc(c2)-c2cnn3ccc(nc23)NCC1 [Compound H94]
< 50 | < 50 | < 100 |  | CN1CCCNc2ccn3ncc(c3n2)-c2cc(cc(C(F)(F)F)c2)OCC1 [Compound H91]
